In patent US8722887B2, “Sulfonylpyrazole and sulfonylpyrazoline carboxamidine derivatives as 5-HT6 antagonists” (Abbvie Bahamas, Ltd., priority 2006, dated 2014):
Where two headings read alike, the source gives them in different places.

Tests used:
5-HT6 receptor [1] = molecular target: T1, 5-HT6 receptor (Homo sapiens, UniProt P50406); experiment: In vitro functional activity (antagonism) on human 5-HT6 receptors, CHO-human-5HT6-Aequorin assay; type: cell-based; set-up: host or cells: CHO/Gα16/mtAEQ/h5HT6-A1 (CHO AequoScreen recombinant cell line)
5-HT6 receptor [2] = molecular target: T1, 5-HT6 receptor; experiment: In vitro affinity for human 5-HT6 receptors, [3H]-LSD binding in CHO cell membranes; set-up: host or cells: CHO/Gα16/mtAEQ/h5HT6-A1 (CHO AequoScreen recombinant cell line); conditions: [3H]-LSD 5.0 nM, membranes of CHO cells transfected with human 5-HT6; read-out: 5-HT6 pKi (converted)
[3] = Sleight, 1998; cited from earlier work
5-HT6 receptor [4] = molecular target: T1, 5-HT6 receptor; conditions: 5-HT6 receptor (Sleight, 1998); cited from earlier work
[5] = Rogers, 1999; cited from earlier work
[6] = antagonism of 10^-8 M α-methylserotonin induced luminescence, CHO-human-5HT6-Aequorin cells, read-out: 5-HT6 pA2 (converted)

T1 sequence (P50406 whole entry): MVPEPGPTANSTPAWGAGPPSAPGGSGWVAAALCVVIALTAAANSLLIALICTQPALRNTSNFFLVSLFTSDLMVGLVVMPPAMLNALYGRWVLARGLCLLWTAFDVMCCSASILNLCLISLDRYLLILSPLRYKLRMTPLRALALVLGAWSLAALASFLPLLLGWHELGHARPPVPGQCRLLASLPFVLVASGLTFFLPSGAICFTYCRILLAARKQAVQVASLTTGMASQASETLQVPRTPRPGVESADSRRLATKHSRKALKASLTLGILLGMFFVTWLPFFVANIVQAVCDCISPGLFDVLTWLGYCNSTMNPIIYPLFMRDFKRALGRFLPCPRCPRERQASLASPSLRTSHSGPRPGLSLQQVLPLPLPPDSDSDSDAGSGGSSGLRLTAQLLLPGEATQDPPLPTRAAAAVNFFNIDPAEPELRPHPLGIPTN

| SMILES | melting point | Ki (5-HT6 receptor [2]) | further results |
| --- | --- | --- | --- |
| CNc1cc(NS(=O)(=O)c2ccc(N)cc2)cc(NC)n1 [Ro 63-0563] | – | – | pharmacokinetics [3]: poor; Ki (5-HT6 receptor [4]): 12 nM |
| COc1ccc(NS(=O)(=O)c2sc3ccc(Cl)cc3c2C)cc1N1CCNCC1 [SB-271046] | – | – | performance in the Morris water maze [5]: improved performance |
| CNc1cc(NS(=O)(=O)c2ccc(N)cc2)nc(NC)n1 [Ro 04-6790] | – | – | pharmacokinetics [3]: poor; Ki (5-HT6 receptor [4]): 50 nM |
| CCN/C(=N\S(=O)(=O)c1ccccc1Cl)N1N=CCC1c1ccccc1 (centres unmarked) [compound 142] | 164 to 166 °C | – | Kb (5-HT6 receptor [1]): 50.1 nM |
| CCN/C(=N\S(=O)(=O)c1ccccc1)N1CC(CC)C=N1 (centres unmarked) [compound 24] | 43 to 45 °C | – | – |
| CC1(C)C=NN(/C(N)=N/S(=O)(=O)c2ccc(Cl)s2)C1 [compound 102] | 162 to 164 °C | – | – |
| CCC1C=NN(/C(N)=N/S(=O)(=O)c2c(Cl)nc3sccn23)C1 (single isomer, unassigned; (+)) [(+)123] | 146 to 147 °C | – | – |

The next lines start with results.

| melting point | Ki (5-HT6 receptor [2]) | SMILES | further results |
| --- | --- | --- | --- |
| 139 to 140 °C | 79.4 nM | CCC1CN(/C(N)=N/S(=O)(=O)c2c(Cl)nc3sccn23)N=C1C (centres unmarked) [compound 130] | Kb (5-HT6 receptor [1]; [6]): 6.31 nM |
| 165 to 166 °C | 158 nM | CC1=NN(/C(N)=N/S(=O)(=O)c2cccc(Cl)c2)CC1c1ccccc1 (centres unmarked) [compound 141] | – |
| 138 to 140 °C | 631 nM | CCN/C(=N\S(=O)(=O)c1ccccc1Cl)N1CCC(c2ccccc2)=N1 [compound 138] | – |
| 114 to 115 °C | – | CCC1C=NN(/C(N)=N/S(=O)(=O)c2ccc(Cl)cc2)C1 (centres unmarked) [compound 30] | Kb (5-HT6 receptor [1]; [6]): 1260 nM |
| 162 to 173 °C | 200 nM | CCC1C=NN(/C(=N/S(=O)(=O)c2ccccc2Cl)N2CCNCC2)C1 (centres unmarked) [compound 16] | – |
| 146 to 147 °C | 1.58 nM | CCN/C(=N\S(=O)(=O)c1c(Cl)nc2sccn12)N1CC2(C=N1)CCCC2 [compound 133] | Kb (5-HT6 receptor [1]; [6]): 0.158 nM |
| 128 to 130 °C | – | CCC1C=NN(/C(=N/S(=O)(=O)c2ccccc2Cl)Nc2ccccc2)C1 (centres unmarked) [compound 12] | – |
| 179 to 184 °C | – | CN1CCN(/C(=N\S(=O)(=O)c2ccc(F)cc2)N2CCC(c3ccc(Cl)cc3)=N2)CC1 [compound 136] | – |
